The values below come from patent EP0033980A1, “Derivatives of 2-methylpropionic acid, process for their preparation and pharmaceutical compositions containing them” (SCHIAPPARELLI FARMACEUTICI S.p.A., priority 1980, dated 1981).

The test system of this experiment is Triglycerid- und Cholesteringehaltes im Blut. Put plainly: Reduction of blood triglyceride and cholesterol content after 10 days of daily peroral treatment, versus untreated controls. It is filed as in vivo. The conditions noted are these: Ratten, 10 Tage, vs. Blindversuche. The text has this:
Diese Wirkungen wurden gegenüber der in der Therapie der Hyperlipidämie (übermäßiger Lipidgehalt im Blut) und Hypercholesterinämie (übermäßiger Cholesteringehalt im Blut) verbreitet angewandten und anerkannt gut wirksamen bekannten Vergleichssubstanz 2-(4'-Chlorphenoxy)-2-me- thylpropionsäure [Clofibrat] bestimmt.
Es wurden vorherbestimmte tägliche Dosen einer erfin-dungsgemäßen Verbindung Laboratoriumstieren (üblicherweise in Gruppen von je 6 Tiere unterteilten Ratten) peroral verabreicht, während die Vergleichssubstanz 2-(4'-Chlor- phenoxy)-2-methylpropionsäure [Clofibrat] in einser Dosis von 130 mg/kg/Tag ebenfalls peroral verabreicht wurde. Die Behandlung wurde 10 Tage fortgesetzt, dann wurden die Tiere geopfert und ihr Blut wurde gesammelt und der Bestimmung seines Triglycerid- und Cholesteringehaltes unterzogen. Die erhaltenen Ergebnisse, ausgedrückt als prozentuale Verminderung des Triglycerid- und Cholesteringehaltes im Blut (prozentuale Hemmung der Bildung des Triglycerid- und Cholesteringehaltes im Blut) gegenüber den Blindversuchen (das heißt den Ratten, welchen weder eine erfindungsgemäße Verbindung noch die Vergleichssubstanz verabreicht wurde), sind in der folgenden Tabelle zusammengestellt.

Regarding `CCOC(=O)C(C)(C)Oc1ccc(-c2ccc(F)cc2F)cc1` [Beispiel 2, 2-(2",4"-Difluordiphenyl-4'-yloxy)-2--methylpropionsäureäthylester], the “Verminderung des Cholesteringehaltes in %” value reads like this: (peroral, 35 mg/kg/Tag) 23%; (peroral, 50 mg/kg/Tag) 30%; (peroral, 2,5 mg/kg/Tag) 11%. Also, the “Verminderung des Triglyceridgehaltes in %” value reads like this: (peroral, 35 mg/kg/Tag) 36%; (peroral, 50 mg/kg/Tag) 29%; (peroral, 2,5 mg/kg/Tag) 22%.
